SMILES strings stand for the structures.

Data on three compounds can be found in patent publication US20170147742A1 (priority 2014, published 2017).

For experiment [1], the system named is E. coli containing the lasQS device. Nature of the experiment: Growth rate of E. coli containing the lasQS inducible device exposed to AHL (microplate OD600). Type of experiment: cell-based, Escherichia coli. The following applies: glucose 20 mM. As for the experimental part:
For characterizations of inducible system (lasQS device) in the vector pBbE8K, cells were first grown to stationary phase overnight in LB medium before being diluted 100× into fresh LB medium. The diluted cells were grown to exponential phase (OD600=1), washed and resuspended in supplemented minimal media with varying glucose concentration (20-0.1 mM) as mentioned earlier. Before being subjected to the microplate fluorescence assay, N-(3-Oxododecanoyl)-L-homoserine lactone (3-Oxo-C12-HSL, Sigma-Aldrich) was added to the pre-culture (Top10—pTetR-LasR-pLuxR-RFP) at varying molar concentrations of 10^−7-10^−9 M. The cell cultures were measured for their OD600 and RFP fluorescence for 6 h.
For each promoter, the three OD600 and RFP data were averaged and background absorbance (wells containing only media) and fluorescence (Top10—E8K)) were subtracted from the raw measurements to obtain OD600 and RFP time series. Measurements were obtained in mid-exponential growth and growth rates were calculated as a time derivative of the OD curves, μ=d ln(OD)/dt. The activity of the promoters (RFP synthesis rate per cell) were calculated by, d(RFP)/dt/OD600. Relative promoter units of every promoter studied were calculated by,
The lasQS device used in this study comprised three key components (FIG. 5(A)): the AHL synthetase LasI, the transcription factor LasR, and the lasI promoter. LasI produces the signaling molecule 3-O—C12-HSL (or AHL), and the LasR-AHL complex activates the lasI promoter. First, to examine the characteristics of the lasQS device, we constitutively expressed LasR using a sigma-70 promoter J23105, derived from the BioBrick parts registry (www.partsregistry.org/Part:pSB1K3). The activity of the device was indicated by red fluorescence protein (RFP), which was placed under the control of the lasI promoter. E. coli containing the lasQS device was exogenously exposed to AHL concentrations ranging from 10^−9 M to 10^−7 M and varying glucose concentrations.

The test system of a further experiment is wild-type E. coli Top10. Nature of the experiment: Growth rate of wild-type E. coli Top10 with transcription and translation inhibitors (microplate OD600). Type of experiment: cell-based, Escherichia coli. The procedure:
Seed cultures were grown in LB medium supplemented with 30 μg/ml kanamycin from freshly transformed plates and after 10 to 12 h of overnight growth, pre-cultures were inoculated in fresh LB medium at a dilution of 100× for 2 to 3 h exponential growth (OD600=0.7−1). For characterization of the promoters in the vector pBbE8K, cell cultures were grown in 5 mL of pre-warmed LB medium at 37° C. in 50 mL test tubes, shaken at 225 rpm. The culture tubes were kept in ice for about 5 min to stop further growth and were pelleted by centrifugation for 2 min at 3300 g in 4° C., washed and diluted to OD600=0.1 by resuspension in pre-warmed supplemented minimal media with different glucose concentrations ranging from 20 mM to 0.1 mM. Cultures were then […] into transparent, flat-bottom 96-well plate in triplicate aliquots of […]. The plate was incubated in 37° C. with shaking for 8 min and growth rates were monitored by measuring absorbance at 600 nm and fluorescence were monitored by measuring RFP at excitation 535 nm and emission 600 nm using Synergy HT microplate reader (Biotek) over time. Time series OD600 and RFP data were collected for every 10 min for a total run time of 6 h.
[…] The cells were subjected to a microplate assay to measure their OD600 for 6 h. Three biological replicates were used for all of the experiments conducted.
For each promoter, the three OD600 and RFP data were averaged and background absorbance (wells containing only media) and fluorescence (Top10—E8K)) were subtracted from the raw measurements to obtain OD600 and RFP time series. Measurements were obtained in mid-exponential growth and growth rates were calculated as a time derivative of the OD curves, μ=d ln(OD)/dt. The activity of the promoters (RFP synthesis rate per cell) were calculated by, d(RFP)/dt/OD600. Relative promoter units of every promoter studied were calculated by, […]

Another experiment deals with E. coli RNA polymerase (Escherichia coli, UniProt P0A8V2). The conditions noted are these: used in simulations, reference (44); read-out: inhibitory potency KI; cited from earlier work.
Sequence of E. coli RNA polymerase (P0A8V2 whole entry): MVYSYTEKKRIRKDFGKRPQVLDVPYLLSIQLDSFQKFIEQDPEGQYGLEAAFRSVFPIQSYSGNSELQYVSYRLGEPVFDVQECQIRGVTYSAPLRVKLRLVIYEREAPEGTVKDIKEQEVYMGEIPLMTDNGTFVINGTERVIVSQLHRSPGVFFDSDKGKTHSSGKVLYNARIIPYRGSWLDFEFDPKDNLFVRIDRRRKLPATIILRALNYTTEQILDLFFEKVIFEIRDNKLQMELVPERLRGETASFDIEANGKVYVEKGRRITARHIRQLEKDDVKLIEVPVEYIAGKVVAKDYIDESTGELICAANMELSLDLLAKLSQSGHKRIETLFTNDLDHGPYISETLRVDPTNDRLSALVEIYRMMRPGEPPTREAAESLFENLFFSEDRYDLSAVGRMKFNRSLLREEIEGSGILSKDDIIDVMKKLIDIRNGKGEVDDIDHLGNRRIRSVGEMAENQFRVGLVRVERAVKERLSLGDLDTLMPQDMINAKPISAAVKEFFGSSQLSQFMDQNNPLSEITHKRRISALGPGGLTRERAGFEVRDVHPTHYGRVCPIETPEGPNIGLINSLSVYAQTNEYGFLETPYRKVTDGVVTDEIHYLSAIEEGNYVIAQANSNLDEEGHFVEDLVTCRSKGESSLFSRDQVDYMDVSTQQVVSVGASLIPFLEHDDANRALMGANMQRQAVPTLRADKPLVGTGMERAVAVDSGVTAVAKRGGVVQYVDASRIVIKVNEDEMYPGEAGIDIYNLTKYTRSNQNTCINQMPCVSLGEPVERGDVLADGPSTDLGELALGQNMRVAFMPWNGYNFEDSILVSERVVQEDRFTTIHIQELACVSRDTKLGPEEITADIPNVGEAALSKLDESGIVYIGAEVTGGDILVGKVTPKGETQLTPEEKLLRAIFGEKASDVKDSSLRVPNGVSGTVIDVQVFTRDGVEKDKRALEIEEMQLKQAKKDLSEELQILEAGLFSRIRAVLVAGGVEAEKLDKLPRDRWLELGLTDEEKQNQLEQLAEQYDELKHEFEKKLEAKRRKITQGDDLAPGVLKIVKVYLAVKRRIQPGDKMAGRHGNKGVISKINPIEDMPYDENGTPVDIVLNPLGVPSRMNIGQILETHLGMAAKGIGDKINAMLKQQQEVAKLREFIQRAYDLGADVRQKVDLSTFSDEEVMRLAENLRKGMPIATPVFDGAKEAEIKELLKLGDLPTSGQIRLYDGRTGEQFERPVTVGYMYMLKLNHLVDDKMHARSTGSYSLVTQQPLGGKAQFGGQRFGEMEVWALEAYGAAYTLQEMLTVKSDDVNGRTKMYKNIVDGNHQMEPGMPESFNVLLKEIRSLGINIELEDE
Sequence of E. coli RNA polymerase (P0A8T7 whole entry partner): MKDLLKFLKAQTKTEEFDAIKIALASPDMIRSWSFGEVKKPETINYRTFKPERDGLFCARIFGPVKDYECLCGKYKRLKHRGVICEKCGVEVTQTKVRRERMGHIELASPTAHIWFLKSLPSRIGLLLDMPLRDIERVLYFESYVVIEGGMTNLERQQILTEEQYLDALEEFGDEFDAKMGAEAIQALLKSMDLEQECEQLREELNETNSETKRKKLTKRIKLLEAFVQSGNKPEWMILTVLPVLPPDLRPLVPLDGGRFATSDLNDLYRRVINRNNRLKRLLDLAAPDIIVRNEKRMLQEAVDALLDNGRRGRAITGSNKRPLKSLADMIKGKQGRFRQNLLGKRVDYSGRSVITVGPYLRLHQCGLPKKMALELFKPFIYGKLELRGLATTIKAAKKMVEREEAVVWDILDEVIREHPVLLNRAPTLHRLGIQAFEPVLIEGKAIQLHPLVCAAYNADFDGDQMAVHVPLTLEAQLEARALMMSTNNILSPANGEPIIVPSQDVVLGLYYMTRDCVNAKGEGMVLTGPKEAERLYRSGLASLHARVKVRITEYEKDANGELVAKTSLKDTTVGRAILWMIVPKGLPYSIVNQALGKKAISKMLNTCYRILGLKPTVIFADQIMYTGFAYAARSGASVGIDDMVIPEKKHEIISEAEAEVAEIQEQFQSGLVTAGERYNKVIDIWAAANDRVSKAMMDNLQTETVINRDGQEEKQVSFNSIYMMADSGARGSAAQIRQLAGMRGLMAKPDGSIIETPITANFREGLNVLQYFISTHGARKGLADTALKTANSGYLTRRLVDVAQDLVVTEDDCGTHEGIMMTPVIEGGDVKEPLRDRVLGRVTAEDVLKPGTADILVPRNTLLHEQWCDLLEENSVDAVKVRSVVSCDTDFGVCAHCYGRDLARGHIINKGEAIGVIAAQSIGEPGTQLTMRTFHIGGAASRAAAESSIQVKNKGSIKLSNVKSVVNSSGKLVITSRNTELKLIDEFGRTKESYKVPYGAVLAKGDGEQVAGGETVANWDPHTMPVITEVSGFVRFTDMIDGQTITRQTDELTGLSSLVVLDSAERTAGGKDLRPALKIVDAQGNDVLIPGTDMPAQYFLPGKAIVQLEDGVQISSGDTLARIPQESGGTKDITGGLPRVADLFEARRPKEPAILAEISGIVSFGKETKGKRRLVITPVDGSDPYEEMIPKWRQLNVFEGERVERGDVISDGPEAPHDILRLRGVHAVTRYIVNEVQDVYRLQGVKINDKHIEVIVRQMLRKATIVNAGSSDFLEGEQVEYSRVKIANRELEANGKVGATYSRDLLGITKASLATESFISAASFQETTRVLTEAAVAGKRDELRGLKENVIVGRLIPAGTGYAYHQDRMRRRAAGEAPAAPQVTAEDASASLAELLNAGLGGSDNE
Sequence of E. coli RNA polymerase (P0A7Z4 whole entry partner): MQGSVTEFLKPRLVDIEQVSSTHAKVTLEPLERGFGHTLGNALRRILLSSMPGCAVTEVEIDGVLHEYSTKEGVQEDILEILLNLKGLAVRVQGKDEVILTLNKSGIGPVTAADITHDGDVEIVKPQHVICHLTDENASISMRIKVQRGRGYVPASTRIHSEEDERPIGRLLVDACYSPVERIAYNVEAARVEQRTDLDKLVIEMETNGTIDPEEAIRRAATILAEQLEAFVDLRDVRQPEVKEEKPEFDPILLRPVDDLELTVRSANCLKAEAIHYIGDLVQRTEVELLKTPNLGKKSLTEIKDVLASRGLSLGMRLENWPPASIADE
Sequence of E. coli RNA polymerase (P0A800 whole entry partner): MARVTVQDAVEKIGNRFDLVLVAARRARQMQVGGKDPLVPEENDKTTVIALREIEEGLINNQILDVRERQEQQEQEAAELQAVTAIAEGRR

Consider `CCCCCCCCCC(=O)CC(=O)N[C@H]1CCOC1=O` [AHL, N-(3-Oxododecanoyl)-L-homoserine lactone], for which the “reduction in growth rate” value in experiment [1] (AHL 10^−7 M) was found to be 23%; in experiment [1] (AHL 10^−8 M) it was 13%; in experiment [1] (AHL 10^−9M) it was 7%.

Regarding `CO[C@H]1/C=C/O[C@@]2(C)Oc3c(C)c(O)c4c(O)c(c(/C=N/N5CCN(C)CC5)c(O)c4c3C2=O)NC(=O)/C(C)=C\C=C\[C@H](C)[C@H](O)[C@@H](C)[C@@H](O)[C@@H](C)[C@H](OC(C)=O)[C@@H]1C` [rifampicin], the growth rate in the experiment on wild-type E. coli Top10 (rifampicin 6 μM, maximum glucose concentration) is recorded as 0.79 doublings per hour; in the experiment with wild-type E. coli Top10 (rifampicin 8 μM, maximum glucose concentration) it was 0.68 doublings per hour; in the experiment with wild-type E. coli Top10 (rifampicin 10 μM, maximum glucose concentration, M9 supplemented media) it was 0.55 doubling per hour. The inhibition constant (Ki) (usually the equilibrium dissociation constant of an inhibitor or competing ligand from its target) at E. coli RNA polymerase was 1 nM.

As to `CN(C)[C@@H]1C(O)=C(C(N)=O)C(=O)[C@@]2(O)C(O)=C3C(=O)c4c(O)cccc4[C@@](C)(O)[C@H]3C[C@@H]12` [tetracycline], the growth rate in the experiment with wild-type E. coli Top10 (tetracycline 4 μM) came out at 0.19 doublings per hour; in the experiment on wild-type E. coli Top10 (tetracycline concentration of 1), 0.66 doublings per hour; with wild-type E. coli Top10 (tetracycline concentration of 2), 0.38 doublings per hour.
